For five compounds, EC50 results are on record in patent US20250179092A1, “PYRIDO[1,2-A]PYRIMIDIN-4-ONE DERIVATIVES” (Hoffmann-La Roche Inc., priority 2022, published 2025).

For the experiment, the system named is mutant HTT protein (mHTT). As to the kind of experiment: Homogeneous Time Resolved Fluorescence (HTRF) assay for HTT lowering. The experiment is classed as cell-based. As to conditions: reduction of mHTT in Huntington patient human cells (GENEAe020-A cell line), 48 hours incubation, mean from three replicates. As for the experimental part: Homogeneous Time Resolved Fluorescence for HTT Lowering
The HTRF assay was adapted from Weiss et al. (Analytical Biochemistry Volume 395, Issue 1, 1 Dec. 2009, Pages 8-15 and Analytical Biochemistry Volume 410, 2011, Pages 304-306) to cells from GENEAe020-A cell line (https.//hpscreg.eu/cell-line/GENEAe020-A).
Compounds were tested for the effect of mutant HTT levels in Huntington patient human cells (GENEAe020-A cell line) using Homogeneous Time Resolved Fluorescence (HTRF) directed towards mutant HTT protein (mHTT). The GENEAe020-A cell line was derived by Genea Biocells from human blastocysts of HD donors. After assessing viability, cells were plated into 384 well collagen coated plates in growth media. Once cells adhered, media was removed and test compounds dissolved in DMSO were diluted with buffer solution and added to the adherent cells. Controls included experiments with no cells, DMSO with no compound, and Hsp90 inhibitor control. Cells were incubated with compounds and controls for 48 hours. Then, the cells were lysed and transferred to an assay plate containing HTRF labeled monoclonal antibodies developed by Paul Patterson (Ko et al., Brain Research Bulletin, Volume 56, Numbers 3 and 4, 2001, Pages 319-329) which recognize specific areas of the HTT protein. The terbium labeled “donor” antibody (2B7) binds to the N-terminus of the HTT protein and the Alexa488 labeled “acceptor” antibody (MW1) is specific for the polyglutamine region of the protein. Binding of the acceptor labeled antibody is more efficient for the extended polyglutamine repeats of mutant HTT protein which translates into a signal boost which enables the specific measurement of mutant HTT protein level. The HTRF donor and acceptor detection reagents were incubated with the cell lysate and the ratio between the signals of the two fluorophores is indicative of the relative quantities of mHTT.
Turning to `Cc1cn2nc(-c3cc(=O)n4cc(C5CCNC6(CC6)C5)ccc4n3)cc(C)c2n1` (racemic) [Example 1, rac-7-(4-azaspiro[2.5]octan-7-yl)-2-(2,8-dimethylimidazo[1,2-b]pyridazin-6-yl)pyrido[1,2-a]pyrimidin-4-one], the response was half-maximal at 31 nM (EC50).

In the case of `COc1cc(-c2cc(=O)n3cc(C4CCNC5(CC5)C4)ccc3n2)nn2cc(C)nc12` (racemic) [Example 2, rac-7-(4-azaspiro[2.5]octan-7-yl)-2-(8-methoxy-2-methyl-imidazo[1,2-b]pyridazin-6-yl)pyrido[1,2-a]pyrimidin-4-one], the response was half-maximal at 21 nM (EC50).

`Cc1cn2nc(-c3cc(=O)n4cc(C5CCNC6(CC6)C5)ccc4n3)cc(C(F)(F)F)c2n1` (racemic) [Example 3, rac-7-(4-azaspiro[2.5]octan-7-yl)-2-[2-methyl-8-(trifluoromethyl)imidazo[1,2-b]pyridazin-6-yl]pyrido[1,2-a]pyrimidin-4-one]: a half-maximal effect (EC50) was put at 40 nM.

For the compound `Cc1nc2c(C)cc(-c3cc(=O)n4cc(C5CCNC6(CC6)C5)ccc4n3)nc2o1` (racemic) [Example 4, rac-7-(4-azaspiro[2.5]octan-7-yl)-2-(2,7-dimethyloxazolo[5,4-b]pyridin-5-yl)pyrido[1,2-a]pyrimidin-4-one], the concentration giving a half-maximal response (EC50) (as a rule, the concentration that produces a half-maximal response) was 49 nM.

`O=c1cc(-c2ccc3nc(Cl)cn3n2)nc2ccc(C3CCNC4(CC4)C3)cn12` (racemic) [Example 5, rac-7-(4-azaspiro[2.5]octan-7-yl)-2-(2-chloroimidazo[1,2-b]pyridazin-6-yl)pyrido[1,2-a]pyrimidin-4-one] yielded an EC50 of 259 nM.
